Test results from ChEMBL document CHEMBL1130942, “A combinatorial approach to chemical modification of subtilisin Bacillus lentus” (Bioorg Med Chem Lett, 1998).

What was measured:
Format in all cases: ADME
[1] = Compound was tested for amidase rate in the presence of N62C fully characterised enzyme
[2] = Compound was tested for amidase rate in the presence of N62C screen enzyme
[3] = Compound was tested for esterase rate in the presence of N62C screen enzyme
[4] = Compound was tested for amidase rate in the presence of S166C fully characterised enzyme
[5] = Compound was tested for esterase rate in the presence of S166C fully characterised enzyme
[6] = Compound was tested for esterase rate in the presence of N62C fully characterised enzyme
[7] = Compound was tested for esterase rate in the presence of S166C screen enzyme
[8] = Compound was tested for amidase rate in the presence of S166C screen enzyme

CS(=O)(=O)SCc1ccccc1
k cat/Km [1]: 379 mM⁻¹ s⁻¹ | k cat/Km [2]: 207 mM⁻¹ s⁻¹ | k cat/Km [3]: 6510 mM⁻¹ s⁻¹ | k cat/Km [4]: 20 mM⁻¹ s⁻¹ | k cat/Km [5]: 4920 mM⁻¹ s⁻¹ | k cat/Km [6]: 6330 mM⁻¹ s⁻¹ | k cat/Km [7]: 1160 mM⁻¹ s⁻¹ | k cat/Km [8]: 10 mM⁻¹ s⁻¹

CS(=O)(=O)SCc1ccc(C(=O)O)cc1
k cat/Km [1]: 442 mM⁻¹ s⁻¹ | k cat/Km [2]: 74 mM⁻¹ s⁻¹ | k cat/Km [3]: 7680 mM⁻¹ s⁻¹ | k cat/Km [4]: 72 mM⁻¹ s⁻¹ | k cat/Km [5]: 11460 mM⁻¹ s⁻¹ | k cat/Km [6]: 50700 mM⁻¹ s⁻¹ | k cat/Km [7]: 2370 mM⁻¹ s⁻¹ | k cat/Km [8]: 16 mM⁻¹ s⁻¹

COc1ccc(CSS(C)(=O)=O)cc1
k cat/Km [1]: 93 mM⁻¹ s⁻¹ | k cat/Km [2]: 86 mM⁻¹ s⁻¹ | k cat/Km [3]: 5680 mM⁻¹ s⁻¹ | k cat/Km [4]: 68 mM⁻¹ s⁻¹ | k cat/Km [5]: 5798 mM⁻¹ s⁻¹ | k cat/Km [6]: 7870 mM⁻¹ s⁻¹ | k cat/Km [7]: 1746 mM⁻¹ s⁻¹ | k cat/Km [8]: 17 mM⁻¹ s⁻¹

CS(=O)(=O)SCc1c(F)c(F)c(F)c(F)c1F [METHANETHIOSULFONIC ACID PENTAFLUOROPHENYLMETHYL ESTER]
k cat/Km [1]: 198 mM⁻¹ s⁻¹ | k cat/Km [2]: 111 mM⁻¹ s⁻¹ | k cat/Km [3]: 7520 mM⁻¹ s⁻¹ | k cat/Km [4]: 67 mM⁻¹ s⁻¹ | k cat/Km [5]: 5198 mM⁻¹ s⁻¹ | k cat/Km [6]: 14260 mM⁻¹ s⁻¹ | k cat/Km [7]: 784 mM⁻¹ s⁻¹ | k cat/Km [8]: 14 mM⁻¹ s⁻¹
